Measured values from patent US6919094B1, “Composition of medicine for treating headache disease and process of preparation and uses thereof” (priority 2000, dated 2005).

Legend:
female NIH mice [1] = assay: mouse hot-plate method pain threshold; assay type: in vivo; details: 1.5 × 10-2 g/kg ip
Experimental: 2.1 The influence on the mouse's reaction to the heat: The experiment referred to the mouse hot-plate method: female NIH mice weighing 18-22 g were put on the type CS501 ultra thermostat's metallic plate, on which the temperature was 55.0±0.5° C. The action of sucking the postpedes and jumping were concerned as the indexes to the pain caused by the heat and the shortest time when the mouse shown the indexes was defined as the pain threshold. The sensitive mice whose pain threshold were shorter than 30 s were chosen and divided into 4 groups according to their pain threshold, each group including 10 mice. […] If the threshold was beyond 60 s, it would be recorded as 60 s. […] The group on the dosage of 5.0 g/kg improved the pain threshold by 148.74% (p<0.001), and the effect lasted 5 hours.

SD white rats = assay: rat's tail-whipping method pain threshold; assay type: in vivo; details: 1.5 × 10-2 g/kg PO
Experimental: 2.2 The influence on the rat's reaction to the heat. The experiment referred to the rat's tail-whipping method: SD white rats weighing 180-220 g were chosen and the distal ⅓ of their tails were dipped into hot water in which the temperature was regulated to 55.0±0.5° C. by the CS501 ultra thermostat. The tail's whipping out of the water was defined to be the index of pain. The rats were divided equably into 5 groups according to the pain threshold and each group had 9 rats. […] (p<0.05), 64.52% (P<0.05), the duration of effect was 1 h, 4 h.

female NIH mice [2] = assay: mouse electrostimulation pain threshold; assay type: in vivo; details: 0.05 g/kg ip
Source text: 2.3 The influence on the electrostimulation of mouse: The experiment method adopted was to simulate the mouse's vola with the electricity. Female NIH mice weighing 18-22 g were chosen and put on the conductive copper-wire plate of the YSD-4 multipurpose apparatus's zoopery box. The electricity was switched on and the time when the mouse […] chosen as the index of pain threshold. The sensitive mice whose pain thresholds were shorter than 15 s were chosen to do the experiment.

female NIH mice [3] = assay: mouse's body-twisting method (ethanoic acid); assay type: in vivo; details: 0.10 g/kg ip, 0.8% ethanoic acid, 20 minutes
Experimental: The experiment method was the mouse's body-twisting method. Female NIH mice weighing 18-22 g were divided into groups at random and each group had 10 mice. […] The number of the mice's body twisting in the following 20 minutes were recorded as the index.

Kunming mice = assay: mouse's spontaneous activity; assay type: in vivo; details: 5 × 10-2 g/kg PO
Source text: Kunming mice weighing 18-22 g were chosen and divided into groups at random. Each group was made up of 10 mice.

[4] = tested on: spontaneous hypertension rat (SHR); assay: BP of the spontaneous hypertension rat; assay type: in vivo; details: 2 × 10-2 g/kg PO
rabbit platelet = rabbit platelet aggregation induced by ADP (Born's method); assay type: cell-based; details: rabbit platelet-rich plasma, ADP 12 μM, 5th minute, 0.27 mg/ml
Experimental: 1.1 The influence on the rabbit platelet's aggregative character: Rabbit platelet plasma was prepared according to the Csalay's method. Lucid rabbit's blood was collected by carotid arterial cannula, then the blood was mingled with 3.8% sodium citrate in proportion of 9:1 to anticoagulate. The mixture was centrifuged on the speed of 1000 rpm for 5 minutes then at the speed of 3000 rpm for 10 minutes. The blood plasma was separated into the platelet-rich plasma and the platelet-absent plasma. When conducting the measurement, the platelet aggregation percent was regulated to 50-60%. The platelet aggregation experiment was performed according to the Born's method by the PPP autobalance platelet-aggregation-machine (type SPA-3), keeping the concentrate of ADP(the aggregation inducer) at 12 μM, then collecting the data and comparing the aggregation percents between the treatment group and the control group at the 5th minute.

rat platelet = rat platelet aggregation after gastric administration; assay type: in vivo; details: 2.7 × 10-2 g/kg PO, ADP 2.8 μM
Experimental: 1.1 The influence on the rabbit platelet's aggregative character: Rabbit platelet plasma was prepared according to the […] method. […] The mixture was centrifuged on the speed of 1000 rpm for 5 minutes then at the speed of 3000 rpm for 10 minutes. The blood plasma was separated into the platelet-rich plasma and the platelet-absent plasma. […] 1.5 hour after the administration, the blood from the abdominal aorta was collected on the condition of anesthesia by ether. The platelet plasma was prepared by the same method mentioned above, and the PLT aggregation experiment performed by the same machine with a different ADP concentrate of 2.8 μM.

male Wistar rats = assay: rat's experimental thrombosis (extracorporeal circulation); assay type: in vivo; details: 0.05 g/kg iv
Experimental: 1.3 The influence on the rat's experimental thrombosis: Male Wistar rats weighing 270-370 g were chosen to be anaesthetized by belly injection of sodium pentobarbital on the dosage of 50 mg/kg, then the rats were fixed at the supine position and the right common carotid artery and the left external jugular vein were detached. A polyvinyl pipe of 19.5 cm long with the inside diameter of 1.5 mm embedded in a 5.0 cm-long type 4 suture and filled with the solution of heparin and normal saline (25 μ/kg) was inserted into the right common carotid artery one end and the left external jugular vein the other end. […] 15 minutes later, the pipe was closed, the suture taken out and the greenweight measured.

In the case of `CN1CC[C@]23c4c5ccc(O)c4O[C@H]2[C@@H](O)C=C[C@H]3[C@H]1C5.Cl` [Morphine hydrochloride], the “pain threshold (hot-plate method)” value (female NIH mice [1]; 1/2 h after administration, cut-off 60 s) is reported as >60 s, the “pain threshold (hot-plate method)” value (female NIH mice [1]; 1 h after administration, cut-off 60 s) is reported as >60 s and the “pain threshold (hot-plate method)” value (female NIH mice [1]; 3 h after administration, cut-off 60 s) is reported as >60 s. The “pain threshold (hot-plate method)” value (female NIH mice [1]; 5 h after administration, cut-off 60 s) was >60 s, the “pain threshold (hot-plate method)” value (female NIH mice [1]; before administration) was 22.5 ± 2.4 s and the “pain threshold (tail-whipping method)” value (SD white rats; 1/2 h after administration) was 9.2 ± 0.8. The “pain threshold (tail-whipping method)” value (SD white rats; 1 h after administration) was 5.7 ± 0.4, the “pain threshold (tail-whipping method)” value (SD white rats; 2 h after administration) was 4.5 ± 0.4 and the “pain threshold (tail-whipping method)” value (SD white rats; 4 h after administration) was 3.3 ± 0.4. The “pain threshold (tail-whipping method)” value (SD white rats; before administration) was 3.2 ± 0.3.

For `Cc1c(N(C)C)c(=O)n(-c2ccccc2)n1C` [aminopyrine], the “pain threshold in the electrostimulation experiment” value (female NIH mice [2]; after administration) was 21.3 ± 5.5 s, the “pain threshold in the electrostimulation experiment” value (female NIH mice [2]; before administration) was 4.8 ± 1.0 s and the twist times (female NIH mice [3]) was 2.8 ± 1.3.

In the case of `COc1cc2c(cc1OC)[C@@H]1Cc3ccc(OC)c(OC)c3CN1CC2` [tetrahydropalmatine], the “Amount of spontaneous activity” value (Kunming mice) is reported as 24.3 ± 4.3.

`C[C@H](CS)C(=O)N1CCC[C@H]1C(=O)O` [Captopril] gave a blood pressure ([4]; 1/2 week) of 113.5 ± 3.9, a blood pressure ([4]; 1 week) of 138.2 ± 3.6 and a blood pressure ([4]; 2 week) of 142.3 ± 1.8. It also gave a blood pressure ([4]; 3 week) of 140.0 ± 2.0 and a blood pressure ([4]; before administration) of 170.5 ± 2.9.

`CC(=O)Oc1ccccc1C(=O)O` [Aspirin] was tested, and the aggregation percent (rabbit platelet) was 39.94 ± 2.05 %, the “platelet aggregation percent (max)” value (rat platelet) was 31.06 ± 3.80 % and the greenweight of thrombus (male Wistar rats) was 18.28 ± 1.28 mg.
